Measurements: patent US20030181408A1, “Genes essential for microbial proliferation and antisense thereto” (priority 1999, published 2003)
In brackets after ≈: the same amount, converted by molar mass.

How the values were obtained:
[1] = system: E. coli transformed with an IPTG-inducible plasmid containing antisense clones; assay: Cell based assay: antibiotic sensitivity of E. coli expressing sublethal antisense RNA (Example 9)
Text: The effectiveness of the above cell based assay was validated using constructs expressing antisense RNA to the proliferation required E. coli genes rplL, rplJ, and rplW encoding ribosomal proteins L7/L12, L10 and L23 respectively. These proteins are part of the protein synthesis apparatus of the cell and as such are required for proliferation. These constructs were used to test the effect of antisense expression on cell sensitivity to antibiotics known to bind to the ribosome and thereby inhibit protein synthesis. Constructs expressing antisense RNA to several other genes (elaD, visC, yohh, and atpE/B), the products of which are not involved in protein synthesis were used for comparison.
First pLex5BA (Krause et al., J. Mol. Biol. 274: 365 (1997), the disclosure of which is incorporated herein by reference in its entirety) expression vectors containing antisense constructs to either rplW or to elaD were introduced into separate E. coli cell populations. Vector introduction is a technique well known to those of ordinary skill in the art. The expression vectors of this example contain IPTG inducible promoters that drive the expression of the antisense RNA in the presence of the inducer. However, those skilled in the art will appreciate that other inducible promoters may also be used. Suitable expression vectors are also well known in the art. The E. coli antisense clones encoding ribosomal proteins L7/L12, L10 and L23 were used to test the effect of antisense expression on cell sensitivity to the antibiotics known to bind to these proteins. […]
The cell populations were exposed to a range of IPTG concentrations in liquid medium to obtain the growth inhibitory dose curve for each clone (FIG. 1). First, seed cultures were grown to a particular turbidity that is measured by the optical density (OD) of the growth solution. […] The cells were grown for up to 15 hours and the extent of growth was determined by measuring the optical density of the cultures at 600 nm. […]

[2] = system: bacterial strain engineered for expression of an antisense against rplL and rplJ (50S ribosomal subunit proteins); assay: microbe, parasite or virus in culture; format: cell-based, E. coli; conditions: read-out: IC50 (+I)
Method: Antibiotics of various chemical classes and modes of action were purchased from Sigma Chemicals (St. Louis, Mo.). Stock solutions were prepared by dissolving each antibiotic in an appropriate aqueous solution based on information provided by the manufacturer. The final working solution of each antibiotic contained no more than 0.2% (w/v) of any organic solvent. To determine their potency against a bacterial strain engineered for expression of an antisense against a proliferation-required gene encoding 50S ribosomal protein, each antibiotic was serially diluted two or three fold in growth medium supplemented with the appropriate antibiotic for maintenance of the anti-sense construct. At least ten dilutions were prepared for each antibiotic. 25 μL aliquots of each dilution were transferred to discrete wells of a 384-well microplate (the assay plate) using a multi-channel pipette. Quadruplicate wells were used for each dilution of an antibiotic under each treatment condition (plus and minus inducer). Each assay plate contained twenty wells for cell growth controls (growth media replacing antibiotic), ten wells for each treatment (plus and minus inducer, in this example IPTG). Assay plates were usually divided into the two treatments: half the plate containing induced cells and an appropriate concentrations of inducer (in this example IPTG) to maintain the state of induction, the other half containing non-induced cells in the absence of IPTG.
Cells for the assay were prepared as follows. Bacterial cells containing a construct, from which expression of antisense nucleic acid against rplL and rplJ, which encode proliferation-required 50S ribosomal subunit proteins, is inducible in the presence of IPTG, were grown into exponential growth (OD600 0.2 to 0.3) and then diluted 1:100 into fresh media containing either 400 μM or 0 μM inducer (IPTG). These cultures were incubated at 37° C. for 2.5 hr. After a 2.5 hr incubation, induced and non-induced cells were respectively diluted into an assay medium at a final OD600 value of 0.0004. The medium contained an appropriate concentration of the antibiotic for the maintenance of the anti-sense construct. In addition, the medium used to dilute induced cells was supplemented with 800 μM IPTG so that addition to the assay plate would result in a final IPTG concentration of 400 μM. Induced and non-induced cell suspensions were dispensed (25 μl/well) into the appropriate wells of the assay plate as discussed previously. The plate was then loaded into a plate reader, incubated at constant temperature, and cell growth was monitored in each well by the measurement of light scattering at 595 nm. Growth was monitored every 5 minutes until the cell culture attained a stationary growth phase. For each concentration of antibiotic, a percentage inhibition of growth was calculated at the time point corresponding to mid-exponential growth for the associated control wells (no antibiotic, plus or minus IPTG). For each antibiotic and condition (plus or minus IPTG), a plot of percent inhibition versus log of antibiotic concentration was generated and the IC50 determined.

[3] = system: Salmonella typhimurium; assay: Growth inhibition by IPTG-induced antisense RNA expression in Salmonella typhimurium (induced vs. uninduced serial dilution plating); format: cell-based
Method: (§1) To study the effects of transcriptional induction in liquid medium, growth curves were carried out by back diluting cultures 1:200 into fresh media with or without 1 mM IPTG and measuring the OD450 every 30 minutes (min). To study the effects of transcriptional induction on solid medium, 10^2, 10^3, 10^4, 10^5, 10^6, 10^7 and 10^8 fold dilutions of overnight cultures were prepared. Aliquots of from 0.5 to 3 μl of these dilutions were spotted on selective agar plates with or without 1 mM IPTG. After overnight incubation, the plates were compared to assess the sensitivity of the clones to IPTG.
(§2) Molecule No. EcXA059, encoding a portion of the ypjA gene of Escherichia coli, was either transformed directly into Enterobacter cloacae, Salmonella typhimurium and/or Klebsiella pneumoniae or subdloned into an expression vector functional in these species and the subclones transformed into these organisms. Suitable expression vectors are well known in the art. These expression vectors were introduced into Enterobacter cloacae, Salmonella typhimurium and/or Klebsiella pneumoniae cells that were then assayed for growth inhibition according to the method of Example 1. After growth in liquid culture, cells were plated at various serial dilutions and a score determined by calculating the log difference in growth for INDUCED vs. UNINDUCED antisense RNA expression as determined by the maximum 10 fold dilution at which a colony was observed. If there was no effect of antisense RNA expression in one organism, the clone is given a score of zero “0” in that organism. In contrast, a score of “8” means that 10^8 times more cells were required to observe a colony formed on the induced state than in the non-induced state under the conditions used and in that organism.
(§3) Expression vectors which inhibited growth of E. coli upon induction of antisense RNA expression with IPTG were transformed directly into Enterobacter cloacae, Klebsiella pneumonia or Salmonella typhimurium. The transformed cells were then assayed for growth inhibition according to the method of Example 1. After growth in liquid culture, cells were plated at various serial dilutions and a score determined by calculating the log difference in growth for INDUCED vs. UNINDUCED antisense RNA expression as determined by the maximum 10 fold dilution at which a colony was observed. If there was no effect of antisense RNA expression in a microorganism, the clone is minus in Table V below. In contrast, a positive in Table V below means that at least 10 fold more cells were required to observe a colony on the induced plate than on the non-induced plate under the conditions used and in that microorganism.

[4] = system: Klebsiella pneumoniae; assay: Growth inhibition by IPTG-induced antisense RNA expression in Klebsiella pneumoniae (induced vs. uninduced serial dilution plating); format: cell-based
Method: as §1, §2, §3

[5] = system: Enterobacter cloacae; assay: Growth inhibition by IPTG-induced antisense RNA expression in Enterobacter cloacae (induced vs. uninduced serial dilution plating); format: cell-based
Method: as §1, §2, §3

[6] = system: E. coli; assay: Inhibition of E. coli proliferation after IPTG induction of antisense clones (liquid growth curves, dilution spotting on plates); format: cell-based, Escherichia coli; conditions: 1 mM IPTG
Method: as §1, §2

## CC1COc2c(N3CCN(C)CC3)c(F)cc3c(=O)c(C(=O)O)cn1c23 (centres unmarked) [Ofloxacin]
[1]; clone expressing antisense to rplL and rplJ
  sensitivity to antibiotics which do not inhibit protein synthesis: does not show increased sensitivity
[2]
  IC50: 0.0458 µg/mL (≈ 0.127 µM)

## CN(C)[C@@H]1C(O)=C(C(N)=O)C(=O)[C@@]2(O)C(O)=C3C(=O)c4c(O)cccc4[C@@](C)(O)[C@H]3C[C@@H]12 [Tetracycline]
[1]; cells expressing antisense to genes not involved in protein synthesis (atpB/E, visC, elaD, yohH)
  sensitivity to tetracycline (tetracycline IC50 with IPTG vs. without IPTG): did not show the same increased sensitivity
[1]; cells with reduced levels of L7/L12 (rplL, rplJ) or L23 (rplW), IPTG giving 50% growth inhibition
  sensitivity to tetracycline (tetracycline IC50 with IPTG vs. without IPTG): increased sensitivity

B1: EcXA083: antisense clone insert, E. coli gene hrpB (nucleic acid, listed as Escherichia coli)
DNA: CGGCTTAGCGCGTCGTTGGCATCGAGCATCGCTCCCATGCCGTTTGCCAGTTGATAGCGTCCATCTTGCC
[3]
  Sensitivity of S. typhimurium to antisense nucleic acid (growth inhibition, induced vs. uninduced): −
[4]
  Sensitivity of K. pneumoniae to antisense nucleic acid (growth inhibition, induced vs. uninduced): −
[5]
  Sensitivity of E. cloacae to antisense nucleic acid (growth inhibition, induced vs. uninduced): −
[6]
  effect of antisense expression on E. coli growth after IPTG induction: reduction in cell growth
